Test systems include A549; ACHN; BT-549; DU-145; EKVX; HT-29; LOX IMVI; MCF7; MDA-N; Malme-3M; OVCAR-3; OVCAR-4; PC-3; SF-539; SK-MEL-28; SK-OV-3; SNB-19; SNB-75; UO-31; A498.
What all share (assay): inhibition of tumour cell growth, NCI panel, 48 h

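The compound was tested at five concentrations on cells cultured in 96-well plates, with a 48-hour exposure period. At the GI50, growth is halved.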 Activity calls are given as the source filed them. Cut-off read from the data, not from the text of the source: active = GI50 up to about 1.1 µM and inactive = higher.

With `Cc1cccc(/N=N/C(=N\NC(=O)c2cc(Cl)ccc2O)c2ccc(N(CCC#N)CCC#N)cc2C)c1`, the GI50 with A549 was 26.5 µM (inactive); in the test with ACHN, 34.7 µM (inactive); with BT-549 it was 24.2 µM (inactive); with DU-145 it was 39.6 µM (inactive); with EKVX it was 34.7 µM (inactive); in the test on HT-29, 28.3 µM (inactive). For the same compound, the GI50 in the test with LOX IMVI was 31 µM (inactive); with MCF7, 32.2 µM (inactive); with MDA-N, 55.6 µM (inactive); in the test on Malme-3M it was 28.1 µM (inactive); in the test with OVCAR-3 it was 18.5 µM (inactive); in the test on OVCAR-4, 22.1 µM (inactive). Moreover, the GI50 with PC-3 was 25.8 µM (inactive); in the test on SF-539, 33.3 µM (inactive); in the test on SK-MEL-28, 42.9 µM (inactive); in the test with SK-OV-3, 35.7 µM (inactive); in the test on SNB-19 it was 35.1 µM (inactive); in the test with SNB-75, 37.9 µM (inactive). Besides, the GI50 in the test on UO-31 is 21.9 µM (inactive).
Consider `Cc1ccc(Nc2cn(COCc3ccccc3)c(=O)[nH]c2=O)cc1`, for which the GI50 with A498 is > 100 µM (inactive); with A549 it was > 100 µM (inactive); with ACHN, 37 µM (inactive); in the test with BT-549, 11.7 µM (inactive); in the test with DU-145, > 100 µM (inactive); in the test on EKVX, > 100 µM (inactive). The GI50 in the test on HT-29, in the test with LOX IMVI, in the test on MCF7, in the test with MDA-N, with OVCAR-3 and with OVCAR-4 was > 100 µM (inactive) throughout. Further, the GI50 in the test on PC-3 is > 100 µM (inactive); in the test with SK-MEL-28, > 100 µM (inactive); in the test on SNB-19, 75.2 µM (inactive); in the test on UO-31, > 100 µM (inactive).
With `c1ccc(Nc2nnc(Cn3ccc4ccccc43)s2)cc1`, the GI50 in the test with A498 is > 100 µM (inactive); with A549 it was 32.4 µM (inactive); with ACHN it was 39.8 µM (inactive); in the test on BT-549 it was > 100 µM (inactive); in the test with DU-145, 92.9 µM (inactive); in the test on EKVX, 50.8 µM (inactive). The GI50 in the test on HT-29 was 57 µM (inactive); with LOX IMVI, 56 µM (inactive); in the test on MCF7 it was 40.3 µM (inactive); in the test with MDA-N, > 100 µM (inactive); with OVCAR-3 it was 24.5 µM (inactive); in the test with OVCAR-4, 36.8 µM (inactive). Moreover, the GI50 in the test with PC-3 is 19.2 µM (inactive); in the test with SF-539 it was 35.6 µM (inactive); in the test with SK-MEL-28, 80.5 µM (inactive); in the test with SK-OV-3 it was > 100 µM (inactive); in the test on SNB-19, 60 µM (inactive); in the test on SNB-75, 20.9 µM (inactive). Besides, the GI50 in the test with UO-31 was 36.4 µM (inactive).
On to `Cc1c(F)c(N)c2c(=O)cc(-c3ccc(NC(=O)C(N)CCCNC(=N)N)c(F)c3)oc2c1F` (configuration not stated), for which the GI50 with A498 is 0.0615 µM (active); in the test on A549, 3.68 µM (inactive); in the test on ACHN, 19.7 µM (inactive); in the test with BT-549 it was 21.8 µM (inactive); in the test with DU-145, 29.6 µM (inactive); in the test on EKVX, 17.2 µM (inactive). For the same compound, the GI50 in the test with HT-29 is > 71.8 µM (inactive); with LOX IMVI, 38.1 µM (inactive); with MCF7 it was 0.0893 µM (active); in the test on MDA-N, 32.1 µM (inactive); with Malme-3M, 27.5 µM (inactive); in the test with OVCAR-4, 0.141 µM (active). The GI50 is 30.5 µM (inactive) in the test on PC-3; 16.7 µM (inactive) in the test on SF-539; 24.7 µM (inactive) in the test with SK-MEL-28; > 44.5 µM (inactive) in the test with SK-OV-3; 24.8 µM (inactive) with SNB-19; 22.8 µM (inactive) in the test on UO-31.
On to `COC(=O)/C=C/c1ccc2c(c1)[C@H](C(=O)OC)[C@@H](c1ccc(O)cc1)O2`, for which the GI50 in the test on A498 is 86.9 µM (inactive); with A549, 34.2 µM (inactive); in the test with ACHN it was 42.6 µM (inactive); in the test with BT-549 it was 16.8 µM (inactive); in the test with DU-145 it was 71.3 µM (inactive); in the test with EKVX, 40 µM (inactive). Further, the GI50 with HT-29 was 27.9 µM (inactive); in the test on LOX IMVI it was 18 µM (inactive); in the test with MCF7, 9.02 µM (inactive); with MDA-N, 5.06 µM (inactive); in the test on Malme-3M it was 20.6 µM (inactive); with OVCAR-3, 8.91 µM (inactive). The GI50 with OVCAR-4 is 29.3 µM (inactive); in the test on PC-3, 23.3 µM (inactive); with SF-539, 44.7 µM (inactive); with SK-MEL-28 it was 23.1 µM (inactive); in the test with SK-OV-3, 69 µM (inactive); in the test on SNB-19 it was 21.9 µM (inactive). Besides, the GI50 in the test with UO-31 is 28.5 µM (inactive).
As for `Nc1ccc2nc(N)n[n+]([O-])c2c1`, the GI50 with A498, with A549, with ACHN, with BT-549, in the test on DU-145 and in the test with EKVX was > 100 µM (inactive) in each case. Also, the GI50 with HT-29, in the test on LOX IMVI, with MCF7, in the test on MDA-N, with OVCAR-3 and with OVCAR-4 was > 100 µM (inactive) each time. For the same compound, the GI50 in the test with PC-3 was > 100 µM (inactive); in the test on SF-539, > 100 µM (inactive); with SK-MEL-28, > 100 µM (inactive); in the test on SK-OV-3, > 100 µM (inactive); with SNB-19, > 100 µM (inactive); in the test with SNB-75 it was 92.7 µM (inactive). Further, the GI50 with UO-31 was > 100 µM (inactive).
`CCOC(=O)N1CCN(c2ccc3ccc(N)nc3n2)CC1`: the GI50 in the test on A549 was > 100 µM (inactive); in the test on ACHN, > 100 µM (inactive); with BT-549 it was > 100 µM (inactive); in the test with DU-145 it was > 100 µM (inactive); in the test with EKVX, > 100 µM (inactive); in the test on HT-29, 80.2 µM (inactive). Moreover, the GI50 in the test on LOX IMVI, in the test with MCF7, in the test on MDA-N, with Malme-3M, in the test with OVCAR-3 and with OVCAR-4 was > 100 µM (inactive) each time. Also, the GI50 in the test with PC-3, in the test with SF-539, in the test with SK-MEL-28, with SK-OV-3, with SNB-19 and in the test with SNB-75 was > 100 µM (inactive) throughout. The GI50 in the test on UO-31 was > 100 µM (inactive).
For the compound `O=C1C(Cl)=C(N(C(=O)c2ccccc2)C(=O)c2ccccc2)C(=O)c2ccccc21`, the GI50 with A498 was > 100 µM (inactive); in the test on A549, 16.4 µM (inactive); with ACHN, 3.17 µM (inactive); in the test with BT-549, 9.04 µM (inactive); in the test on DU-145, > 100 µM (inactive); in the test on EKVX, 5.74 µM (inactive). Besides, the GI50 in the test with HT-29 is 24.7 µM (inactive); in the test with LOX IMVI, 25.6 µM (inactive); in the test on MCF7 it was 10.1 µM (inactive); with MDA-N it was 13.1 µM (inactive); in the test with OVCAR-3, 10.9 µM (inactive); with PC-3, 9.18 µM (inactive). Further, the GI50 was 4.3 µM (inactive) in the test on SF-539; 14.9 µM (inactive) in the test with SK-MEL-28; 40.6 µM (inactive) in the test on SK-OV-3; 26.6 µM (inactive) with SNB-19; 3.68 µM (inactive) in the test on SNB-75; 3.39 µM (inactive) in the test with UO-31.

The record behind these values is ChEMBL document CHEMBL1201862, “PubChem BioAssay data set” (2004).
